Legend:
HCT116 [1] = details: 72 h
Summary of the method: (§1)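 Four-parameter Hill fits gave IC50 and maximal efficacy. The data were CellTiter-Glo luminescence readings in HCT116 cells, normalized so that vehicle was 0% and positive control was -100%, with pattern correction afterwards.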

HCT116 [2] = experiment: efficacy (maximum % inhibition of viability vs DMSO); higher = more cytotoxic; details: 72 h
Summary of the method: as §1

Compound	IC50 cell viability (HCT116 [1]; ICRF193 0 nM) [µM]	IC50 cell viability (HCT116 [1]; ICRF193 200 nM) [µM]	efficacy (HCT116 [2]; ICRF193 200 nM) [%]	efficacy (HCT116 [2]; ICRF193 0 nM) [%]
Cc1cc(-n2c(=O)[nH]c(=O)n(C)c2=O)ccc1Oc1ccc(SC(F)(F)F)cc1 [TOLTRAZURIL]	> 45.8	20.6	41.6	–
C=C1/C(=C\C=C2/CCC[C@]3(C)[C@@H]([C@H](C)CC[C@@H](O)C(C)C)CC[C@@H]23)C[C@@H](O)C[C@@H]1O [Tacalcitol]	23.1	20.6	53.2	49.2
CC1(C)CCC(C)(C)c2cc(NC(=O)c3ccc(C(=O)O)cc3)ccc21 [Tamibarotene]	20.6	> 45.8	–	52.7
CC/C(=C(\c1ccccc1)c1ccc(OCCN(C)C)cc1)c1ccccc1 [Tamoxifen]	23.1	18.3	93	101
O=C(OC[C@H]1O[C@@H](OC(=O)c2cc(O)c(O)c(OC(=O)c3cc(O)c(O)c(O)c3)c2)[C@H](OC(=O)c2cc(O)c(O)c(OC(=O)c3cc(O)c(O)c(O)c3)c2)[C@@H](OC(=O)c2cc(O)c(O)c(OC(=O)c3cc(O)c(O)c(O)c3)c2)[C@@H]1OC(=O)c1cc(O)c(O)c(OC(=O)c2cc(O)c(O)c(O)c2)c1)c1cc(O)c(O)c(OC(=O)c2cc(O)c(O)c(O)c2)c1 [Tannic acid]	18.3	18.3	102	108
CCC[C@H](NC(=O)[C@@H]1[C@H]2CCC[C@H]2CN1C(=O)[C@@H](NC(=O)[C@@H](NC(=O)c1cnccn1)C1CCCCC1)C(C)(C)C)C(=O)C(=O)NC1CC1 [Telaprevir (VX-950)]	20.6	29.1	74.5	80.7
Oc1cccc(-c2c3nc(c(-c4cccc(O)c4)c4ccc([nH]4)c(-c4cccc(O)c4)c4nc(c(-c5cccc(O)c5)c5ccc2[nH]5)CC4)C=C3)c1 [Temoporfin]	> 45.8	25.9	46	–
CO[C@H]1C[C@@H]2CC[C@@H](C)[C@@](O)(O2)C(=O)C(=O)N2CCCC[C@H]2C(=O)O[C@H]([C@H](C)C[C@@H]2CC[C@@H](OC(=O)C(C)(CO)CO)[C@H](OC)C2)CC(=O)[C@H](C)/C=C(\C)[C@@H](O)[C@@H](OC)C(=O)[C@H](C)C[C@H](C)/C=C/C=C/C=C/1C [Temsirolimus]	14.2	15.9	79	74.5
COc1cc([C@@H]2c3cc4c(cc3[C@@H](O[C@@H]3O[C@@H]5CO[C@@H](c6cccs6)O[C@H]5[C@H](O)[C@H]3O)[C@H]3COC(=O)[C@H]23)OCO4)cc(OC)c1O [Teniposide]	2.31	1.83	103	92
COc1ccc(-n2nc(CCC(=O)N(C)O)cc2-c2ccc(Cl)cc2)cc1 [Tepoxalin]	16.4	16.4	88.3	93.4
C/C(O)=C(\C#N)C(=O)Nc1ccc(C(F)(F)F)cc1 [Teriflunomide]	13	11.6	46.2	51.8
CN(C)C(=S)SC(=S)N(C)C [Tetramethylthiuram monosulfide]	> 45.8	3.66	40.7	–
CCSc1ccc2c(c1)N(CCCN1CCN(C)CC1)c1ccccc1S2 [Thiethylperazine dimalate]	29.1	20.6	101	102
OC[C@H]1O[C@@H](n2cnc3c(S)ncnc32)[C@H](O)[C@@H]1O [Thioinosine]	3.26	3.66	93.2	95.1
CN1CCN(CCCN2c3ccccc3Sc3ccc(S(=O)(=O)N(C)C)cc32)CC1 [Thioproperazine dimethanesulfonate]	> 45.8	20.6	46.2	–
CSc1ccc2c(c1)N(CCC1CCCCN1C)c1ccccc1S2 (configuration not stated) [Thioridazine]	23.1	18.3	95	115
C=C(NC(=O)C(=C)NC(=O)c1csc(C2=N[C@@H]3c4csc(n4)[C@H]4NC(=O)c5csc(n5)[C@H]([C@](C)(O)[C@@H](C)O)NC(=O)[C@H]5CSC(=N5)/C(=C/C)NC(=O)[C@H]([C@@H](C)O)NC(=O)c5csc(n5)[C@]3(CC2)NC(=O)[C@H](C)NC(=O)C(=C)NC(=O)[C@H](C)NC(=O)[C@H]([C@@H](C)CC)N[C@@H]2C=Cc3c([C@H](C)O)cc(nc3[C@H]2O)C(=O)O[C@@H]4C)n1)C(N)=O [Thiostrepton]	> 45.8	5.17	58.6	–

Reference: the supplement of paper PMC12137928
